Source: the supplement of paper PMC10307832

What was measured:
Test in all cases: relative viability (nuclei count vs DMSO), 5 days (fraction); higher = more cells survive
Tanzisertib + Linsitinib = compound: O[C@H]1CC[C@H](Nc2ncc3nc(Nc4c(F)cc(F)cc4F)n([C@H]4CCOC4)c3n2)CC1 [Tanzisertib] + C[C@]1(O)C[C@@H](c2nc(-c3ccc4ccc(-c5ccccc5)nc4c3)c3c(N)nccn32)C1 [Linsitinib] (partner 1 µM)
Summary of the method: (§1)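 Medians of duplicate plates are given as relative viability. That measure is the nuclei count in treated wells divided by the count in vehicle wells. Counts were taken on 4× images of lung cancer cell lines in 1536-well plates, 5 days after pin-tool dosing the day after seeding with one drug alone or a fixed anchor-drug dose plus five library-drug doses (not always all listed) in √10 steps.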

[1] = compound: C[C@@H](N)c1ccc(C(=O)Nc2ccnc3[nH]ccc23)cc1 + O=C(c1cc(Cc2n[nH]c(=O)c3ccccc23)ccc1F)N1CCN(C(=O)C2CC2)CC1 [Olaparib] (partner 8 µM)
Summary of the method: as §1

Tanzisertib + Crizotinib = compound: O[C@H]1CC[C@H](Nc2ncc3nc(Nc4c(F)cc(F)cc4F)n([C@H]4CCOC4)c3n2)CC1 [Tanzisertib] + C[C@@H](Oc1cc(-c2cnn(C3CCNCC3)c2)cnc1N)c1c(Cl)ccc(F)c1Cl [Crizotinib] (partner 1 µM)
Summary of the method: as §1

[2] = compound: C1CNCCC1C2=CC(=NN2)C3=CC=NC=C3 + Nc1ncn([C@H]2C[C@H](O)[C@@H](CO)O2)c(=O)n1 [Decitabine] (partner 2 µM)
Summary of the method: as §1

Cell Line | relative viability (Tanzisertib + Linsitinib; first compound 0.08 µM) | relative viability (Tanzisertib + Linsitinib; first compound 0.253 µM) | relative viability (Tanzisertib + Linsitinib; first compound 0.8 µM) | relative viability (Tanzisertib + Linsitinib; first compound 2.53 µM) | relative viability (Tanzisertib + Linsitinib; first compound 8 µM) | relative viability ([1]; first compound 0.04 µM) | relative viability ([1]; first compound 0.1265 µM) | relative viability ([1]; first compound 0.4 µM) | relative viability ([1]; first compound 1.265 µM) | relative viability ([1]; first compound 4 µM) | relative viability (Tanzisertib + Crizotinib; first compound 0.08 µM) | relative viability (Tanzisertib + Crizotinib; first compound 0.253 µM) | relative viability (Tanzisertib + Crizotinib; first compound 0.8 µM) | relative viability (Tanzisertib + Crizotinib; first compound 2.53 µM) | relative viability (Tanzisertib + Crizotinib; first compound 8 µM) | relative viability ([2]; first compound 0.08 µM) | relative viability ([2]; first compound 0.8 µM) | relative viability ([2]; first compound 2.53 µM) | relative viability ([2]; first compound 8 µM)
HARA | 0.842 | 0.572 | 0.901 | 0.892 | 0.987 | 1.02 | 0.907 | 1.32 | 0.966 | 0.819 | 1.12 | 1.05 | 1.06 | 1.06 | 1.08 | 0.471 | 0.524 | 0.762 | 0.432
HCC-15 | 1.05 | 0.833 | 0.896 | 0.786 | 0.924 | 0.744 | 0.731 | 0.726 | 0.693 | 0.743 | 0.877 | 0.811 | 0.88 | 0.818 | 0.872 | 0.652 | 0.793 | 0.587 | 0.621
HCC-44 | 0.683 | 0.74 | 0.673 | 0.602 | 0.724 | 0.949 | 0.966 | 0.966 | 1.05 | 0.889 | 0.907 | 0.824 | 0.822 | 0.89 | 0.817 | 0.957 | 0.989 | 0.961 | 0.942
HCC-78 | 0.478 | 0.524 | 0.528 | 0.367 | 0.529 | 1.05 | 0.964 | 1.16 | 1.4 | 1.08 | 0.287 | 0.331 | 0.313 | 0.332 | 0.286 | 0.677 | – | 0.637 | 0.743
HCC-366 | 0.757 | 0.59 | 0.691 | 0.576 | 0.419 | 0.345 | 0.368 | 0.371 | 0.447 | 0.389 | 0.651 | 0.523 | 0.671 | 0.492 | 0.515 | 0.266 | 0.353 | 0.373 | 0.366
HCC-827 | 0.919 | 0.915 | 0.907 | 0.954 | 0.746 | – | 0.764 | 0.834 | 0.739 | 0.542 | 0.903 | 0.964 | 0.931 | 0.892 | 0.559 | 0.294 | 0.302 | 0.297 | 0.336
IA-LM | 0.793 | 0.552 | 0.589 | 0.712 | 0.768 | 0.824 | 0.996 | 0.914 | 1.11 | 0.914 | 0.927 | 0.544 | – | 0.948 | 0.87 | – | – | – | –
NCI-H522 | – | – | – | – | – | 0.591 | 0.684 | 0.657 | 0.658 | 0.629 | – | – | – | – | – | 0.619 | 0.646 | 0.552 | 0.789
NCI-H1299 | 1.16 | 0.976 | 1.02 | 1.09 | 1.06 | 0.91 | 0.987 | 0.933 | 0.878 | 0.767 | 0.983 | 0.972 | 0.968 | 0.984 | 1.05 | – | – | – | –
NCI-H1395 | 1.32 | 0.956 | 1.08 | 1.04 | 1.05 | 0.473 | 0.511 | 0.406 | – | 0.393 | – | – | – | – | – | 0.705 | 0.714 | 0.751 | 0.755
NCI-H1563 | 1.28 | 1.12 | 1.2 | 1.24 | 1.16 | – | – | – | – | – | 0.85 | 0.937 | 0.869 | 0.966 | 0.79 | – | – | – | –
NCI-H1648 | – | – | – | – | – | 1.01 | 1.02 | 1.93 | 1.71 | 1.29 | – | – | – | – | – | 0.453 | 0.572 | – | 0.573
NCI-H1650 | – | – | – | – | – | 0.81 | 0.943 | 0.812 | 0.822 | 0.763 | 1 | 1.06 | 1.07 | 0.914 | 0.803 | 0.216 | 0.49 | 0.399 | 0.509
NCI-H1703 | 1.03 | 0.674 | 0.787 | 0.316 | 0.546 | 0.374 | 0.476 | 0.348 | – | 0.463 | 0.538 | 0.573 | 0.69 | 1.08 | 0.723 | – | – | – | –
NCI-H1793 | 1.04 | 0.686 | 0.972 | 0.884 | 0.816 | 1.09 | 0.999 | 1.04 | – | 0.928 | – | – | – | – | – | 0.338 | – | 0.489 | 0.626
NCI-H2170 | – | – | – | – | – | 0.618 | 0.584 | 0.614 | 0.746 | 0.543 | 1.42 | 1.18 | 1.16 | 1.09 | 1.02 | 0.442 | 0.446 | 0.487 | 0.529
NCI-H2228 | 0.877 | 0.691 | 0.573 | 0.553 | 0.509 | 0.535 | 0.726 | 0.714 | 0.917 | 0.771 | 0.53 | 0.458 | 0.475 | 0.465 | 0.351 | – | – | – | –
NCI-H2342 | – | – | – | – | – | 0.454 | 0.469 | 0.405 | 0.481 | 0.388 | – | – | – | – | – | 0.634 | 0.709 | 0.685 | 0.819
SW 900 | – | – | – | – | – | 1.03 | 0.918 | 1.21 | 0.883 | 1.08 | – | – | – | – | – | 0.418 | – | 0.424 | 0.475
